Reference: US4840941A, “Method for inhibiting infection of human T-cells” (Kabushiki Kaisha Ueno Seiyaku Oyo Kenkyujo, priority 1986, dated 1989)

Key:
[1] = Acute toxicity (LD50) in mice; format: in vivo
HTLV-III [2] = assay: Anti-AIDS activity, infected cell rate of MT-4 cells infected with HTLV-III at 6th day; format: cell-based; details: for anti-AIDS virus activity: MT-4 cells, HTLV-III
Description: (§1) To MT-4 cells (30×10^4 /ml) cultured in RPMI-1640 medium containing 10% bovine serum, was inoculated HTLV-III, and the suspension was incubated at 37° C. for 1 hour to cause the adsorption of the virus. The cell:virus ratio was 500:1. The cells were then washed, and cultured with or without various doses of the test substances (same as those of Example 1) at 37° C. under 5% CO2 for 3 days, after which cell growth, viability, and percentage of infected cells were recorded. The infected cells were distinguished from the uninfected cells by indirect immuno-fluorescence method. Thus; the cultured cells were fixed with cold methanol on a slide glass, reacted with antibody to the HTLV-III-specific antigens, and further with the secondary antibody (having fluorescent label). The results are shown in FIGS. 9-29, wherein, , and show the controls without virus; , and show the infection experiments with HTLV-III. The cell growth is indicated in number of cells, the viability (%) in number of viable cells×100/number of total cells, and the infected cell rate (%) in number of fluorescent-positive cells×100/number of total cells.
In order to examine the correlation between the anti-AIDS virus activity and the molecular structure (especially, molecular weight and S-content or number of sulfate group in this case) of various test substances including those used in Examples 1-7, the anti-AIDS activities were evaluated for the various naturally occurring polysaccharides, polysaccharides having sulfate group, mucopolysaccharides, mucopolysaccharide sulfate, and mucopolysaccharide polysulfate. Further, similar experiments were carried out with various other sulfates which were synthetically obtained. The experimental procedures employed are identical to that in preceding experiments. The cultured MT-4 cells were infected with HTLV-III and the inhibitory effects of various test subsutances on the infected cell rate (number of fluorescent cell×100/ total cell, %) were determined at 6th day.

[3] = tested on: disrupted HTLV-III virions as a crude reverse transcriptase; assay: Inhibition of reverse transcriptase activity (disrupted HTLV-III virions); format: biochemical; details: crude enzyme from HTLV-III virions
[4] = tested on: DNA polymerase of phytohemagglutinin stimulated human lymphocytes; details: in vitro; Cancer Research, 38, 2401-2407; cited from earlier work
[5] = tested on: reverse transciptase of simian sarcoma virus; details: in vitro; Cancer Research, 38, 2401-2407; cited from earlier work
HTLV-III [6] = assay: Anti-AIDS virus activity, MT-4 cells infected with HTLV-III, 3 days; format: cell-based; details: increasing dose
Description: as §1
Test substances were assayed for the anti-AIDS virus activity in the same manner as in Example 3 using cell culture. The test substances are the same as those used in Example 5. […]
The anti-AIDS virus activity of heparin was evaluated in the same manner as in Example 3. […]

[7] = tested on: reverse transcriptase (authentic sample) derived from Avian Myeloblastosis Virus; assay: Inhibition of reverse transcriptase activity (AMV); format: biochemical; details: AMV enzyme; 1, 0.1 and 0.01 μg/ml
Description: Test substances were assayed for inhibition against the enzyme activity of reverse transcriptase (authentic sample) derived from Avian Myeloblastosis Virus (abbrev. AMV), a kind of retrovirus. Five microliters of […] (template RNA), 4 μl of (dT)12-18 (primer DNA), and 1 μl of water were mixed with 5 μl of 0.5M Tris-CHl (pH 8.4) including 0.1% triton X-100, 5 μl of […], 5 μl of 20 mM-DDT, 5 μl of water, and [^3 H]-TTP (tritium labeled thymidine triphosphate). To this mixture, test substances in solutions (final concentrations: 1, 0.1, and 0.01 μg/ml, 5 μl) or buffer solutions (control, 5 μl) at various doses were added. Then, 5 μl (one unit) of the authentic reverse transcriptase derived from AMV was added and the reaction mixture was incubated at 37° C. for 30 minutes. The reaction was stopped by addition of trichloroacetic acid, and after filtering the reaction mixture, the radioactivity of the polymerized (^3 H-T)n retained on the filter was measured using a liquid scintillation counter. As the test substances, sodium dextran sulfate (molecular weight: 5000), same (molecular weight: 8000), same (molecular weight: 500000), fucoidin, κ-carrageenan, λ-carrageenan, and .iota.-carrageenan were used.
The effects of the test substances on the reverse transcriptase activity of AMV were evaluated by the method described in Example 1.

[8] = 100 μg/ml, 6th day, control 100%
[9] = 10 μg/ml, 6th day, control 100%

Sodium dextran sulfate [Sodium dextran sulfate (molecular weight: 7000-8000, S-conte]
acute toxicity (LD50) ([1]; intravenously): 4,500 mg/kg
acute toxicity (LD50) ([1]; orally): 21,000 mg/kg
Infected cell (%) (HTLV-III [2]; 10 μg/ml, 6th day; control 100%; S-content 17-20), 8640 min): 1%
Infected cell (%) (HTLV-III [2]; [8]): 0%
reverse transcriptase inhibitory effect [3]: has an inhibitory effect

Heparin
acute toxicity (LD50) ([1]; intravenously): 1,500-2,000 mg/kg
inhibition of DNA polymerase of phytohemagglutinin stimulated human lymphocytes [4]: inhibit
Infected cell (%) (HTLV-III [2]; [9]): 41%
Infected cell (%) (HTLV-III [2]; [8]): 1%
anti-AIDS virus activity (HTLV-III [2]; 6th day): particularly strong anti-AIDS virus activities
inhibition of reverse transcriptase of simian sarcoma virus [5]: inhibit
cell growth and viability of MT-4 cells infected with HTLV-III (HTLV-III [6]): the number of cells and viability were maintained to that of control
infected cell rate (HTLV-III [6]; indirect immunofluorescence): less susceptible to the viral infection

Chondroitin polysulfate
reverse transcriptase inhibition activity [7]: stronger activity than the natural substances
Infected cell (%) (HTLV-III [2]; [9]): 3%
Infected cell (%) (HTLV-III [2]; [8]): 1%
anti-AIDS virus activity (HTLV-III [2]; 6th day): particularly strong anti-AIDS virus activities
